Experimental data taken from patent publication US20130023485A1, “PARENTERAL FORMULATIONS OF PEPTIDES FOR THE TREATMENT OF SYSTEMATIC LUPUS ERYTHEMATOSUS” (Teva Pharmaceutical Industries, Ltd., priority 2003, published 2013).
Where two headings read alike, the source gives them in different places.

Columns and labels:
[1] = system: SLE subjects; assay: Phase Ib clinical study, multiple s.c. doses, tolerability and safety; assay type: in vivo, human; conditions: multiple s.c. doses of 0.5, 1 or 2.5 mg in 120 mg Captisol®, 12 injections in 4 weeks
Method: This study is being performed in order to evaluate the safety and tolerability of repeated Compound 1 sc administration to SLE subjects. […] Subjects are monitored on planned visits scheduled at 2, 4, 8 and 12 weeks after start of dosing. Safety and tolerability are evaluated using tests similar to those described in the Phase Ia Clinical Study above.

[2] = system: TGF-β secretion by PBL of SLE patients; assay: Up-regulation of TGF-β secretion by PBL stimulated with human 16/6Id mAb (ELISA); assay type: cell-based
Method: For this purpose, supernatants were removed from cultures of PBL of various SLE patients following 48 hours incubation with the human 16/6Id mAb in the absence or presence of the peptides hCDR1 or hCDR3. TGF-β was determined by ELISA according to the manufacturer's instructions. Briefly, Maxisorb plates (Nunc) were coated with recombinant human TGFβsRII/Fc chimera (R & D Systems) diluted in PBS (100 ng/ml). After blocking, cell supernatants were added. After 18 hours incubation the detecting biotinylated anti-human TGF-β antibody (R & D Systems) was added. The substrate solution used was the TMB Colour Reagent (Helix Diagnostics) and enzyme activity was evaluated by the MRX ELISA reader using the 570 nm and 630 nm filters.

[3] = Mouse toxicity study of formulation; assay type: in vivo; conditions: 30% (w/w) PEG 400 formulation
Source text: Thus, it was decided not to further pursue this formulation. In view of the preliminary experiments non-aqueous solvents were not used in the subject formulations.

[4] = system: Balb/c mice and (NZB×NZW)F1 mice; conditions: cited from earlier work
[5] = system: PBL of SLE patients stimulated with human 16/6Id mAb; assay type: cell-based; conditions: for inhibition of proliferative responses to human 16/6Id mAb: PBL of one SLE patient
Method: Cells were then harvested and radioactivity was counted using a β-counter. Results were expressed as mean counts per minute (cpm) of triplicate cultures. Stimulation indices (the ratio of mean cpm at the optimal concentration of 16/6Id to mean cpm without 16/6Id) were then calculated. A stimulation index (SI)≧2 was considered positive. […] Inhibition of above 50% of the proliferative capacity was considered positive. The Table represents the highest positive inhibition capacity for each peptide. […] Both peptides inhibited the proliferation of PBL of 18/19(95%) of responders tested. It can also be seen in the Table that the magnitudes of inhibitions were similar for both peptides. Thus, it can be concluded that peptides based on CDR1 and CDR3 of the human 16/6Id mAb are efficient inhibitors of the proliferation of PBL of SLE patients to the human 16/6Id mAb.

[6] = system: IL-2 secretion by PBL of SLE patients; assay: Inhibition of IL-2 secretion by PBL stimulated with human 16/6Id mAb (CTLL line); assay type: cell-based
Method: It was of interest to find out whether the hCDR peptides are capable of inhibiting IL-2 secretion by PBL of SLE patients following stimulation with the human 16/6Id mAb. […] To this end, PBL of SLE patients were incubated with the human 16/6Id mAb in the absence or presence of the peptides hCDR1 or hCDR3. Supernatants of the cultures were collected following 48 hours of incubation. Assays to determine levels of IL-2 in the supernatants were performed using the CTLL IL-2 dependent line. Briefly, cells of the CTLL line (2×10^4/well) were incubated in the presence of the different supernatants for 24 hours, followed by the addition of ^3H-thymidine for an additional 18-hour incubation period. Cells were then harvested and radioactivity counted using a β-counter. Results were calculated based on recombinant human IL-2 used as a standard. The ability of the peptides to inhibit the IL-2 secretion of PBL of 23 responders stimulated by the human 16/6 Id was tested. […] Inhibition of proliferative responses of PBL directly correlated with IL-2 inhibition by the CDR-based peptides.

[7] = Biological activity of chosen Compound 1 formulations
Source text: The pH was adjusted if needed.

[8] = Solubility of Compound 1 with solubility enhancers (visual examination and analytical assay)
[9] = system: Compound 1 reference standard (RS) specific T-cells; assay: Inhibition of IL-2 secretion from T-cells of immunized mice after s.c. treatment (ELISA); assay type: in vivo
Source text: The biological activity was monitored by inhibition of IL-2 secretion from Compound 1 reference standard (RS) specific T-cells following subcutaneous (s.c.) treatment with the lyophilized compound solution, i.e. the drug product (DP), at two concentrations. The results of the treatment are compared to those of treating mice with Compound 1 (RS) in phosphate buffered saline (PBS).

[10] = treated 50 μg/mouse s.c., activator Compd. 1 RS 5 μg/ml
[11] = treated 50 μg/mouse s.c., activator Compd. 1 RS 10 μg/ml
[12] = treated 50 μg/mouse s.c., activator Compd. 1 RS 25 μg/ml
[13] = treated 50 μg/mouse s.c., activator Compd. 1 RS 50 μg/ml
[14] = treated 50 μg/mouse s.c., activator Compd. 1 RS 100 μg/ml
[15] = treated 50 μg/mouse s.c., activator Compd. 1 RS […]
[16] = treated 200 μg/mouse s.c., activator Compd. 1 RS 5 μg/ml
[17] = treated 200 μg/mouse s.c., activator Compd. 1 RS 10 μg/ml
[18] = treated 200 μg/mouse s.c., activator Compd. 1 RS 25 μg/ml
[19] = treated 200 μg/mouse s.c., activator Compd. 1 RS 50 μg/ml
[20] = treated 200 μg/mouse s.c., activator Compd. 1 RS 100 μg/ml

Substance: H-GYYWSWIRQPPGKGEEWIG-OH [Compound 1]
- safety and tolerability [1]: safe and well tolerated
- Up-Regulation of TGF-β % (patients) ([2]; PBL of SLE patients, 48 hours): 100 (19/19) %
- secretion of TGF-β ([2]; PBL of one representative SLE patient, FIG. 13): significant up-regulation
- Maximum Up-regulation % ([2]; percent secretion above that in the presence of 16/6 Id alone (= 100%)): 305 ± 221%
- adverse effects [3]: may have been the cause of some adverse effects
- 16/6 Id specific antibody response [4]: no effect
- SLE related findings (immune complex deposits in the kidney, proteinuria, leukopenia) [4]: significantly reduced
- Percent Inhibition of proliferation, Mean ± SD [5]: 68.12 ± 9.57%
- inhibition of proliferative responses to human 16/6Id mAb ([5]; FIG. 10): inhibited efficiently
- inhibition of proliferative responses to human 16/6Id mAb ([5]; FIG. 11): did inhibit efficiently
- responders whose PBL proliferation was inhibited (above 50%) ([5]; of the 19 responders tested): 84.2%
- patients whose PBL IL-2 secretion was inhibited / tested ([6]; 23 responders): 21/23
- Maximum inhibition % ([6]; IL-2 secretion with 16/6 Id alone = 100%): 84 ± 31%
- Inhibitory Activity* % (patients with inhibition of 50% or more) ([6]; PBL of 23 responders): 91 (21/23) %
- inhibition of IL-2 secretion ([6]; PBL of one SLE patient, FIG. 12): 100%
- biological activity ([7]; 30% (w/w) PEG 400 formulation): inactive
- biological activity ([7]; formulations with acetate buffer and citrate buffer (Mannitol as tonicity agent)): active
- biological activity ([7]; the two cyclodextrin formulations (Hydroxypropyl-β-cyclodextrin, Captisol)): equal to the activity of the peptide alone
- solubility ([8]; 30% (w/w) PEG 400): 5000 to 9000 µg/mL
- solubility ([8]; 30% DMA (dimethyl-acetamide) solution): 5000 to 9000 µg/mL
- solubility ([8]; Human Serum Albumin solution): 1000 µg/mL
- solubility ([8]; Hydroxypropyl-β-cyclodextrin solution): ~10000 µg/mL
- solubility ([8]; L-Arginine, resulting pH above 9): at the desired level
- solubility ([8]; Polysorbate 20 / Polysorbate 80 solution, up to 10%): ≤ 2000 µg/mL
- solubility ([8]; Sulfobutylether-β-cyclodextrin (Captisol) solution): ~2500 µg/mL
- effect on solubility ([8]; bulking agents Mannitol, Sorbitol, Dextran, alone and combined): did not improve the solubility
- stability versus pH ([8]; initial tests, limits of desired pH levels): less stable at the basic pH range
- effect on solubility ([8]; non aqueous solvents Ethanol, Glycerin, Propylene glycol, Chremophore and combinations): did not increase the solubility
- Average inhibition (%) (at the range of 5-100 μg/ml) ([9]; treated 50 μg/mouse s.c.): 45.6%
- IL-2 secretion ([9]; treated 50 μg/mouse s.c., activator Compd. 1 RS 0 μg/ml): BQL
- IL-2 secretion ([9]; treated 50 μg/mouse s.c., activator Compd. 1 RS 0.5 μg/ml): 9 pg/mL
- IL-2 secretion ([9]; treated 50 μg/mouse s.c., activator Compd. 1 RS 1 μg/ml): BQL
- % inhib. of IL-2 secretion [9, 10]: 55%
- IL-2 secretion [9, 10]: 9 pg/mL
- % inhib. of IL-2 secretion [9, 11]: 38%
- IL-2 secretion [9, 11]: 16 pg/mL
- % inhib. of IL-2 secretion [9, 12]: 48%
- IL-2 secretion [9, 12]: 15 pg/mL
- % inhib. of IL-2 secretion [9, 13]: 47%
- IL-2 secretion [9, 13]: 21 pg/mL
- % inhib. of IL-2 secretion [9, 14]: 41%
- IL-2 secretion [9, 14]: 25 pg/mL
- % inhib. of IL-2 secretion [9, 15]: 51%
- IL-2 secretion [9, 15]: 8 pg/mL
- IL-2 secretion ([9]; treated 50 μg/mouse s.c., activator Con A […]): 6,215 pg/ml
- Average inhibition (%) (at the range of 5-100 μg/ml) ([9]; treated 200 μg/mouse s.c.): 60.4%
- IL-2 secretion ([9]; treated 200 μg/mouse s.c., activator Compd. 1 RS 0 μg/ml): BQL
- IL-2 secretion ([9]; treated 200 μg/mouse s.c., activator Compd. 1 RS 0.5 μg/ml): 10 pg/mL
- IL-2 secretion ([9]; treated 200 μg/mouse s.c., activator Compd. 1 RS 1 μg/ml): BQL
- % inhib. of IL-2 secretion [9, 16]: 60%
- IL-2 secretion [9, 16]: 8 pg/mL
- % inhib. of IL-2 secretion [9, 17]: 58%
- IL-2 secretion [9, 17]: 11 pg/mL
- % inhib. of IL-2 secretion [9, 18]: 63%
- IL-2 secretion [9, 18]: 11 pg/mL
- % inhib. of IL-2 secretion [9, 19]: 62%
- IL-2 secretion [9, 19]: 15 pg/mL
- % inhib. of IL-2 secretion [9, 20]: 58%
- IL-2 secretion [9, 20]: 18 pg/mL
- IL-2 secretion ([9]; treated 200 μg/mouse s.c., activator Compd. 1 RS […]): BQL
- IL-2 secretion ([9]; treated 200 μg/mouse s.c., activator Con A […]): 5,403 pg/ml
